These results are taken from patent US20070104644A1, “Inhibitor imaging agents” (priority 2003, published 2007).

For this data set, the system named is Lewis lung carcinoma (LLC) tumour. As to the kind of experiment: Biodistribution in LLC tumour model in vivo. Details: species or system C57BL/6 mice. As for the experimental part:
1×10^6 Lewis lung carcinoma (LLC) cells are injected subcutaneously into right inner thigh of C57BL/6 mice. Tumours were allowed to grow for 15 days prior to biodistribution being carried out.
Biodistribution studies were performed in the LLC tumour model.
Biodistribution was performed in the LLC tumour model of Example 23 with Compounds 46B and 48B.

Consider `NC(=O)[C@H](Cc1ccc(O)c([123I])c1)NC(=O)COCC(=O)NCCOCCOCCOCCNC(=O)CCN(C1(C(=O)NO)CCCC1)S(=O)(=O)c1ccc(Oc2ccc(F)cc2)cc1` [Compound 20A], for which the “Decrease in HBS (hepatobiliary) excretion compared to Compound 24A” value was 10%, the “Increase in urinary excretion compared to Compound 24A” value turned out to be 10%, the “Tumour retention compared to Compound 24A” value was “slightly increased” and the “Uptake into the tumour compared to Compound 24A” value was “slightly lower”.
Take `NC(=O)[C@H](Cc1ccc(O)c([123I])c1)NC(=O)[C@H](CCC(=O)O)NC(=O)[C@H](CCC(=O)O)NC(=O)[C@H](CCC(=O)O)NC(=O)[C@H](CCC(=O)O)NC(=O)[C@H](CCC(=O)O)NC(=O)CCN(C1(C(=O)NO)CCCC1)S(=O)(=O)c1ccc(Oc2ccc(F)cc2)cc1` [Compound 21A]: where the note is “5 min post injection”, the “% ID Urinary (urinary excretion), mean” value was 5.62 % ID; the “% ID/g Tumour, mean” value came out at 1.64 % ID/g; the “Tumour/Blood, mean” value amounted to 0.13; the “Tumour/Heart, mean” value worked out at 0.30. In addition, under “5 min post injection”, the “Tumour/Lung, mean” value stood at 0.28 and the “Tumour/Muscle, mean” value is given as 0.92. In addition, where the note is “30 min post injection”, the “% ID Urinary (urinary excretion), mean” value is 26.73 % ID; the “% ID/g Tumour, mean” value was determined as 2.20 % ID/g; the “Tumour/Blood, mean” value is 0.33; the “Tumour/Heart, mean” value came to 0.83. Further, for the setting “30 min post injection”, the “Tumour/Lung, mean” value is recorded as 0.65 and the “Tumour/Muscle, mean” value is listed as 1.72. Further, where the note is “60 min post injection”, the “% ID Urinary (urinary excretion), mean” value is 39.99 % ID; the “% ID/g Tumour, mean” value is 1.97 % ID/g; the “Tumour/Blood, mean” value came to 0.40; the “Tumour/Heart, mean” value is 1.14. For the setting “60 min post injection”, the “Tumour/Lung, mean” value is listed as 0.66 and the “Tumour/Muscle, mean” value amounted to 2.30. Where the note is “120 min post injection”, the “% ID Urinary (urinary excretion), mean” value came out at 52.08 % ID; the “% ID/g Tumour, mean” value came to 1.60 % ID/g; the “Tumour/Blood, mean” value is given as 0.37; the “Tumour/Heart, mean” value is reported as 0.91. Moreover, for the setting “120 min post injection”, the “Tumour/Lung, mean” value amounted to 0.61 and the “Tumour/Muscle, mean” value amounted to 2.44.
On to `NC(=O)[C@H](Cc1ccc(O)c([123I])c1)NC(=O)COCC(=O)NCCOCCOCCOCCNC(=O)[C@H](CCC(=O)O)NC(=O)[C@H](CCC(=O)O)NC(=O)[C@H](CCC(=O)O)NC(=O)[C@H](CCC(=O)O)NC(=O)[C@H](CCC(=O)O)NC(=O)CCN(C1(C(=O)NO)CCCC1)S(=O)(=O)c1ccc(Oc2ccc(F)cc2)cc1` [Compound 38A], for which, for the setting “5 min post injection”, the “% ID Urinary (urinary excretion), mean” value is reported as 6.37 % ID; the “% ID/g Tumour, mean” value amounted to 2.08 % ID/g; the “Tumour/Blood, mean” value worked out at 0.13; the “Tumour/Heart, mean” value stood at 0.29. Under “5 min post injection”, the “Tumour/Lung, mean” value was 0.33 and the “Tumour/Muscle, mean” value stood at 1.22. Also, under “30 min post injection”, the “% ID Urinary (urinary excretion), mean” value is listed as 40.17 % ID; the “% ID/g Tumour, mean” value was determined as 2.14 % ID/g; the “Tumour/Blood, mean” value was determined as 0.30; the “Tumour/Heart, mean” value was 0.90. Moreover, where the note is “30 min post injection”, the “Tumour/Lung, mean” value is 0.73 and the “Tumour/Muscle, mean” value is 2.19. Moreover, under “60 min post injection”, the “% ID Urinary (urinary excretion), mean” value is 68.53 % ID; the “% ID/g Tumour, mean” value stood at 1.06 % ID/g; the “Tumour/Blood, mean” value was determined as 0.45; the “Tumour/Heart, mean” value turned out to be 1.25. Where the note is “60 min post injection”, the “Tumour/Lung, mean” value was 0.83 and the “Tumour/Muscle, mean” value is given as 2.27. Also, where the note is “120 min post injection”, the “% ID Urinary (urinary excretion), mean” value is listed as 78.75 % ID; the “% ID/g Tumour, mean” value was found to be 0.42 % ID/g; the “Tumour/Blood, mean” value came out at 0.52; the “Tumour/Heart, mean” value came to 1.14. Besides, where the note is “120 min post injection”, the “Tumour/Lung, mean” value is on record as 0.64 and the “Tumour/Muscle, mean” value was 1.82.
For the compound `NCCCC[C@H](NC(=O)CCN(C1(C(=O)NO)CCCC1)S(=O)(=O)c1ccc(Oc2ccc(F)cc2)cc1)C(=O)N[C@@H](CCCCN)C(=O)N[C@@H](CCCCN)C(=O)N[C@@H](CCCCN)C(=O)N[C@@H](CCCCN)C(=O)NCCOCCOCCOCCNC(=O)COCC(=O)N[C@@H](Cc1ccc(O)c([123I])c1)C(N)=O` [Compound 42A], for the setting “5 min post injection”, the “% ID Urinary (urinary excretion), mean” value was determined as 6.89 % ID; the “% ID/g Tumour, mean” value is recorded as 2.26 % ID/g; the “Tumour/Blood, mean” value was determined as 0.26; the “Tumour/Heart, mean” value stood at 0.47. For the same compound, under “5 min post injection”, the “Tumour/Lung, mean” value stood at 0.26 and the “Tumour/Muscle, mean” value is 1.46. Moreover, for the setting “30 min post injection”, the “% ID Urinary (urinary excretion), mean” value stood at 16.98 % ID; the “% ID/g Tumour, mean” value was found to be 2.67 % ID/g; the “Tumour/Blood, mean” value is on record as 0.54; the “Tumour/Heart, mean” value was 1.24. Moreover, under “30 min post injection”, the “Tumour/Lung, mean” value is recorded as 0.57 and the “Tumour/Muscle, mean” value is given as 3.22. Further, where the note is “60 min post injection”, the “% ID Urinary (urinary excretion), mean” value amounted to 31.69 % ID; the “% ID/g Tumour, mean” value is listed as 2.35 % ID/g; the “Tumour/Blood, mean” value is 0.66; the “Tumour/Heart, mean” value stood at 1.49. Further, where the note is “60 min post injection”, the “Tumour/Lung, mean” value is given as 0.74 and the “Tumour/Muscle, mean” value amounted to 3.52. Under “120 min post injection”, the “% ID Urinary (urinary excretion), mean” value was found to be 48.07 % ID; the “% ID/g Tumour, mean” value is given as 1.29 % ID/g; the “Tumour/Blood, mean” value is given as 0.56; the “Tumour/Heart, mean” value amounted to 1.49. For the setting “120 min post injection”, the “Tumour/Lung, mean” value is recorded as 0.60 and the “Tumour/Muscle, mean” value was determined as 2.51.
As to `NC(=O)[C@H](Cc1ccc(O)c([123I])c1)NC(=O)CCOCCOCCOCCOCCOCCOCCOCCOCCOCCOCCOCCNC(=O)CCN(C1(C(=O)NO)CCCC1)S(=O)(=O)c1ccc(Oc2ccc(F)cc2)cc1` [Compound 44A], for the setting “5 min post injection”, the “% ID Urinary (urinary excretion), mean” value amounted to 3.94 % ID; the “% ID/g Tumour, mean” value stood at 1.14 % ID/g; the “Tumour/Blood, mean” value was 0.41; the “Tumour/Heart, mean” value was 0.86. Moreover, under “5 min post injection”, the “Tumour/Lung, mean” value was found to be 0.49 and the “Tumour/Muscle, mean” value is on record as 1.91. Moreover, where the note is “30 min post injection”, the “% ID Urinary (urinary excretion), mean” value came out at 5.85 % ID; the “% ID/g Tumour, mean” value is on record as 0.5 % ID/g; the “Tumour/Blood, mean” value came out at 0.38; the “Tumour/Heart, mean” value worked out at 0.870. Moreover, for the setting “30 min post injection”, the “Tumour/Lung, mean” value is 0.54 and the “Tumour/Muscle, mean” value is 1.57. For the same compound, under “60 min post injection”, the “% ID Urinary (urinary excretion), mean” value is given as 6.36 % ID; the “% ID/g Tumour, mean” value was found to be 0.66 % ID/g; the “Tumour/Blood, mean” value is recorded as 0.42; the “Tumour/Heart, mean” value turned out to be 0.940. Moreover, where the note is “60 min post injection”, the “Tumour/Lung, mean” value is 0.69 and the “Tumour/Muscle, mean” value is on record as 2.3. For the same compound, for the setting “120 min post injection”, the “% ID Urinary (urinary excretion), mean” value stood at 9.42 % ID; the “% ID/g Tumour, mean” value is on record as 0.53 % ID/g; the “Tumour/Blood, mean” value came out at 0.43; the “Tumour/Heart, mean” value was 1.060. Where the note is “120 min post injection”, the “Tumour/Lung, mean” value was determined as 0.72 and the “Tumour/Muscle, mean” value was found to be 2.8.
